Values after ≈ are worked out from the molar mass of the structure shown. Like-named read-outs stand apart in the source and are kept apart here.
Tests used:
[1] = pH range of 4–9; ref EFSA 2003; cited from earlier work
[2] = set-up: method as in Wang et al., 2014; conditions: dosed as a micro-suspension in mice; ref Wang et al., 2014; cited from earlier work
[3] = system: multidrug resistant Pf K1; set-up: method as in Beteck et al., 2018; conditions: ref Beteck et al., 2018; read-out: IC50 against multidrug resistant Pf K1; cited from earlier work
Pf NF54 = conditions: ref Beteck et al., cited from earlier work
[4] = cited from earlier work
[5] = Kinetic solubility in PBS (HPLC-DAD); format: physicochemical; conditions: phosphate buffer saline (PBS); for solubility kinetic at 2 h: aqueous buffer, kinetic from dmso stock
Experimental: Stock concentrations of test samples (10 mM) were prepared in DMSO and diluted to a final concentration of […] in phosphate buffer saline (PBS) solutions at pH 2, 6.5, and 7.4 in flat-bottomed 96-well plates. A three-point calibration curve of each control and test compound was prepared from stock solutions in DMSO. Plates were agitated on an orbital shaker at room temperature for 2 h at 200 rpm and subsequently analysed using a reverse phase Gemini NX-C18 column (5 μM, 2.1 mm × 50 mm) with an Agilent 1,200 Rapid Resolution HPLC and diode array detection.

[6] = Lipophilicity, 1-octanol/phosphate buffer pH 7.4 (LogD7.4); format: physicochemical
Experimental: Stock solutions ([…]) of compounds were diluted to 100 μM in 96-well deep-well plate containing 1-octanol and phosphate buffer at pH 7.4. The plate was agitated on an orbital shaker at 750 rpm for 2 h. The organic and buffer layers of each well were transferred separately to a new analysis plate. The samples were analysed with the HPLC-diode array detection as described for kinetic solubility. Samples from both layers were analysed to determine LogD7.4 values.

[7] = Metabolic stability in human liver microsomes; format: in vitro ADME; conditions: for Estimated in vivo CLH HLM: *protein binding data not included; for CLint scaled: human, calculated from t1/2 in HLM, read-out: In vitro CLint HLM; for CLint scaled / half-life: pooled liver microsomes; for half-life: human liver microsomes, NADPH, read-out: Degradation half-life HLM
Experimental: (§1) A 5-point metabolic stability assay in human and mouse liver microsomes were performed in duplicate in 96-well plates. Stock solution of RMB005, −059 and 060 prepared in DMSO were individually incubated at 37°C in mouse and pooled human liver microsomes (0.4 mg/mL). An aliquot was removed at 0 min and quenched with ice cold acetonitrile containing the internal standard carbamazepine (0.1 μM). The cofactor NADPH was added, and the reactions were subsequently stopped at time points 5, 10, 30, and 60 min by removal of an aliquot and quenching with ice cold acetonitrile containing the internal standard. The supernatant of all samples were analysed via LC-MS/MS analysis (reverse phase Gemini NX-C18 column and Shimadzu HPLC and AB Sciex 3200 Q TRAP MS). Calculation of in vitro t1/2, intrinsic clearance rate (CLint) and predicted in vivo clearance (CLH) was carried out using the following equations ([Obach 1999]). CLintClint= 0.693/t1/2(min) ×Volume of incubation (μL)/microsomal protein (μg) Where t1/2 is calculated in minutes.
(§2) Predicted in vivo CLH CLH=Q × fu(plasma)×CLint/fu(mic)/Q+ fu(plasma)× CLint/fu(mic) Where Q is the hepatic blood flow of mouse (90 mL/min/kg) or human (20.7 mL/min/kg). Fu(plasma) is the unbound drug fraction in the plasma and fu(mic) is the unbound fraction in the microsomes.
(§3) The equation below was used in the case of RMB059 and -060, where protein-binding data were not available. CLH=Q × CLint/Q+ CLint

[8] = Metabolic stability in mouse liver microsomes; format: in vitro ADME; conditions: for Estimated in vivo CLH MLM: *protein binding data not included; for half-life: mouse liver microsomes, NADPH, read-out: Degradation half-life MLM; for CLint scaled: mouse, liver microsomes, calculated from t1/2 in MLM, read-out: In vitro CLint MLM
Experimental: as §1, §2, §3

[9] = Passive permeability, parallel artificial membrane permeation assay (PAMPA); format: in vitro ADME; conditions: donor pH 6.5, acceptor pH 7.4, 4 h, read-out: Permeability (LogPapp) (converted)
Experimental: A parallel artificial membrane permeation assay (PAMPA) was used to assess the passive permeability of compounds with a 96-well MultiScreen filter plate ([…] pore size, Millipore). The filter plate was precoated with 5% hexadecane in hexane. Stock solutions of compounds were diluted to 1 mM in a donor buffer (pH 6.5). Lucifer yellow was added to the apical wells of the precoated MultiScreen plate containing compound donor solution. The donor buffer solutions were spiked with each test compound (1 mM). The acceptor-buffer solution was prepared by adding 10 μL DMSO to 990 μL acceptor buffer (pH 7.4) and 250 μL were added to the basolateral (acceptor) wells. The donor plate was carefully inserted into the acceptor plate and incubated at room temperature for 4 h. After the incubation period, 50 μL of samples from the acceptor plate were transferred to a round bottom 96-well plate, together with 30 μL of donor buffer for matrix matching. Theoretical equilibrium samples for each test compound were prepared by adding 150 μL of donor solutions to 250 μL acceptor solutions and left at room temperature. These theoretical equilibrium samples represent complete transfer of the compound into the donor well. For the theoretical equilibrium samples, 80 μL were added to the analysis plate. Lastly, 160 μL of the internal standard carbamazepine (0.1 μM) was added to all acceptor and equilibrium samples. A portion of the sample containing Lucifer yellow was analyzed on a BioRad iMark^TM Microplate Absorbance Reader (BioRad, Hercules, CA, United States; excitation 490 nm, emission 510–570 nm) to determine that P app was within the acceptable range (<50 nm/s). Samples were analysed using reverse phase Gemini NX-C18 column (5 μM, 2.1 mm × 50 mm) with a Shimadzu HPLC coupled with an AB Sciex 3200 Q TRAP MS). The Papp for each compound was determined using. C=VD × VA/(VD+VA) ×A×t where VA = volume of donor compartment (0.15 cm^3), VD = volume of acceptor compartment (0.25 cm^3), A = accessible filter area (0.24 cm^2) and t = incubation time (14,400 s). […]

Plasma stability = format: in vitro ADME; conditions: human plasma; for half-life: pooled plasma, 37°C
Experimental: Stock solutions of compounds in DMSO were used to spike pooled human plasma. Samples were transferred in duplicate to 6 different wells of a 96-deep well plate. An aliquot of each sample was immediately quenched with ice cold acetonitrile containing the internal standard carbamazepine (0.1 μM), after which the plate was incubated in a water bath (37°C for 1 h). Aliquots of samples were removed at 5, 15, 40, 60, and 180 min and quenched with ice cold acetonitrile. After samples of the final time point were precipitated, the supernatant was transferred to a round bottom 96-well plate for analysis by LC-MS/MS using a reverse phase Gemini NX-C18 column (5 μM, 2.1 mm × 50 mm) with a Shimadzu HPLC coupled with an AB Sciex 3200 Q TRAP MS). The peak area ratios were used to calculate the amount of parent compound remaining and t1/2 in plasma, using the following equations.
% Parent remaining % Parent= Normalised peak area of sample at timepoint/Normalised peak area of sample at t=0 x 100
Predicted t1/2 t1/2= −0.693/λ Where λ is the slope of the Ln % parent remaining vs. time curve.

[10] = system: multidrug resistant Pf W2; set-up: method as in Beteck et al., 2018; conditions: ref Beteck et al., 2018; read-out: Activity against multidrug resistant Pf W2; cited from earlier work
Neospora caninum = system: Neospora caninum; set-up: method as in Beteck et al., 2018; conditions: in vitro; ref Beteck et al., 2018; read-out: IC50 against Neospora caninum; cited from earlier work
Toxoplasma gondii (Tg) = system: Toxoplasma gondii (Tg); set-up: method as in Beteck et al., 2018; conditions: in vitro; ref Beteck et al., 2018; read-out: IC50 against Toxoplasma gondii; cited from earlier work
[11] = system: P. berghei sporozoite liver stages; conditions: abstract; no reference given; cited from earlier work
[12] = set-up: method as in Tanner et al., 2019; conditions: ref Tanner et al., 2019; cited from earlier work
[13] = cited from earlier work; remark: listed apart in the source
[14] = 2018, read-out: IC50 against Pf NF54

Row | Compound | IC50 [3] | IC50 (Pf NF54; [14]) | logD at 2 h [6] | Estimated in vivo CLH HLM [7] | CLint scaled [7] | half-life [7] | Estimated in vivo CLH MLM [8] | half-life [8] | CLint scaled [8] | Papp at 4 h, 1 mM [9] | Plasma stability (in words) (Plasma stability) | half-life (Plasma stability) | IC50 [10] | other results
1 | CCCCCCCCCCOc1cc2c(O)c(C(=O)OCC)cnc2cc1OCC [DQ, decoquinate] | 64.9 nM | 26.6 nM |  |  |  |  |  |  |  |  |  |  |  | Solubility in buffered aqueous solutions [1]: 0.024 µM (≈ 0.01 µg/mL); Solubility in buffered water [1]: 0.01 µg/mL (≈ 0.0239 µM); Relative BA [2]: 6%; IC50 (Pf NF54; Pf NF54, 2018, read-out: NF54 IC50 (line in the PK figures, in vitro IC50 in the discussion)): 26 nM; IC50 (Pf NF54; 2016, read-out: In vitro activity against chloroquine-sensitive NF54 asexual parasites): 26.6 nM; Octanol/water partition coefficient (Log Kow or LogP) ([4]; 25°C, pH 5, 7, or 9, ref Bampidis et al., 2019): ≥ 5.7; LogD ([4]; ref Burger et al., 2018): 7.8
2 | CCCCCCCCCCOc1cc2c(OC(=O)N3CCOCC3)c(C(=O)OCC)cnc2cc1OCC [RMB059] | 14.4 nM | 6.8 nM | 2.9 | 19.7* mL/min/kg | 24.6 L/h/kg | 10.6 min | 75.2* mL/min/kg | 16.6 min | 27.4 L/h/kg | 15.8 nm/s | high degree of lability | 66 min | 5.7 nM | solubility kinetic at 2 h ([5]; PBS pH 2, read-out: Kinetic solubility pH 2): < 5 µM; solubility kinetic at 2 h ([5]; PBS pH 6.5, read-out: Kinetic solubility pH 6.5): < 5 µM; solubility kinetic at 2 h ([5]; PBS pH 7.4, read-out: Kinetic solubility pH 7.4): < 5 µM; solubility at 2 h ([5]; all pH levels tested (pH 2, 6.5, 7.4)): < 5 µM
3 | CCCCCCCCCCOc1cc2c(OC(=O)N3CCN(S(C)(=O)=O)C3=O)c(C(=O)OCC)cnc2cc1OCC [RMB060] | 1.3 nM | 1.4 nM | 2.9 | 18.6* mL/min/kg | 11 L/h/kg | 13.1 min | 77.2* mL/min/kg | 14.5 min | 32.5 L/h/kg | 5.01 nm/s | high degree of lability | < 8 min | 1.1 nM | IC50 (Neospora caninum): 0.6 nM; IC50 (Toxoplasma gondii (Tg)): 1.1 nM; Activities against P. berghei sporozoite liver stages (in words) [11]: sub-nanomolar
4 | CCCCCCCCCCOc1cc2c(=O)c(C(=O)NCCOCCO)cn(CCO)c2cc1OCC [RMB073] |  |  |  |  |  |  |  |  |  |  |  |  |  | Predicted kinetic solubility at pH 7.4 [12]: > 150 µM; Plasma half-life [13]: greater than 6 h
